The values below are quoted from earlier work in patent US20240042038A1, “FORMULATIONS OF CABAZITAXEL” (Zhuhai Beihai Biotech Co., Ltd., priority 2020, published 2024).

With `CO[C@H]1C(=O)[C@]2(C)[C@@H](OC)C[C@H]3OC[C@@]3(OC(C)=O)[C@H]2[C@H](OC(=O)c2ccccc2)[C@]2(O)C[C@H](OC(=O)[C@H](O)[C@@H](NC(=O)OC(C)(C)C)c3ccccc3)C(C)=C1C2(C)C` [Cabazitaxel, cabazitaxel], the solubility in alcohol result is listed as “soluble” and the solubility in water entry is reported as “practically insoluble”.
